In US10820591B2, “Substituted sulfonyl amides for controlling animal pests” (Bayer Aktiengesellschaft, priority 2016, dated 2020):
Read-outs that look alike come from different tables or passages of the source.

Assays:
Meloidogyne incognita [1] = test: Meloidogyne incognita test, comparative examples (soil drench, lettuce); assay type: in vivo; conditions: 504 h, MELGIN, 0.5 ppm, 21dat
Procedure: Meloidogyne incognita Test [table] To produce a suitable active compound preparation, 1 part by weight of active compound is mixed with the specified amounts of solvent and emulsifier, and the concentrate is diluted with water to the desired concentration, it being necessary to include the volume of soil which is drenched in the calculation. It should be ensured that a concentration of 20 ppm of emulsifier in the soil is not exceeded. To produce further test concentrations, water is used for dilution. Pots filled with soil (loamy sand) are watered with the active compound solution. An egg/larvae suspension of the southern root-knot nematode (Meloidogyne incognita) is added, lettuce seeds are scattered over the surface of the soil, and they are covered over with quartz sand. The lettuce seeds germinate and the plants develop. The galls develop on the roots. After 21 days, the nematicidal efficacy in % is determined by the formation of galls. 100% means that no galls have been found; 0% means that the number of galls on the treated plants corresponds to the untreated control.

[2] = log P by HPLC on reversed-phase column (C18), EEC Directive 79/831 Annex V.A8; assay type: physicochemical
Procedure: The log P values were determined according to EEC Directive 79/831 Annex V.A8 by HPLC (high-performance liquid chromatography) on a reversed-phase column (C18). Temperature 43° C. The calibration is effected with unbranched alkan-2-ones (having 3 to 16 carbon atoms), for which the log P values are known. Here, the terms acidic and neutral are defined analogously to the definitions below for the determination of M^+. The determination of the M^+ by LC-MS in the acidic range was carried out at pH 2.7 using the mobile phases 0.1% aqueous formic acid and acetonitrile (contains 0.1% formic acid); linear gradient from 10% acetonitrile to 95% acetonitrile, instrument: Agilent 1100 LC system, Agilent MSD system, HTS PAL. The determination of the M^+ by LC-MS in the neutral range was carried out at pH 7.8 using the mobile phases 0.001 molar aqueous ammonium bicarbonate solution and acetonitrile; linear gradient from 10% acetonitrile to 95% acetonitrile.

Meloidogyne incognita [3] = test: Meloidogyne incognita test (sand, lettuce, gall formation); assay type: in vivo; conditions: Meloidogyne incognita, 336 h, 20 ppm, after 14 days; read-out: nematicidal efficacy (formation of galls)
Procedure, shortened: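 Vessels held sand, diluted compound solution, M. incognita egg/larvae suspension and lettuce seeds, and the plants grew for 14 days. Efficacy in % came from root gall formation: 100% means no galls, 0% means galls equal to the untreated control.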

Tetranychus urticae = Tetranychus urticae spray test, OP-resistant; assay type: in vivo; conditions: foliar, 144 h, bean leaf discs, after 6 days, read-out: efficacy
Procedure: Tetranychus urticae—Spray Test, OP-Resistant
To produce a suitable active compound preparation, 1 part by weight of active compound is dissolved with the specified parts by weight of solvent and made up to the desired concentration with water containing an emulsifier concentration of 1000 ppm. To produce further test concentrations, the formulation is diluted with emulsifier-containing water.
Discs of bean leaves (Phaseolus vulgaris) infested with all stages of the greenhouse red spider mite (Tetranychus urticae) are sprayed with an active compound preparation of the desired concentration.
After 6 days, the efficacy in % is determined. 100% means that all the spider mites have been killed; 0% means that no spider mites have been killed.

Myzus persicae [4] = test: Myzus persicae spray test (Chinese cabbage leaf discs); assay type: in vivo; conditions: foliar, 144 h, 500 g/ha, after 6 days, read-out: efficacy
Procedure: Myzus persicae—Spray Test [table] To produce a suitable active compound preparation, 1 part by weight of active compound is dissolved with the specified parts by weight of solvent and made up to the desired concentration with water containing an emulsifier concentration of 1000 ppm. To produce further test concentrations, the formulation is diluted with emulsifier-containing water. Discs of Chinese cabbage leaves (Brassica pekinensis) infested by all stages of the green peach aphid (Myzus persicae) are sprayed with an active compound preparation of the desired concentration. After 6 days, the efficacy in % is determined. 100% means that all the aphids have been killed; 0% means that no aphids have been killed.

Myzus persicae [5] = test: Myzus persicae oral test; assay type: in vivo; conditions: 120 h, 20 ppm, after 5 days, read-out: efficacy
Procedure: Myzus persicae—Oral Test [table] To produce a suitable active compound preparation, 1 part by weight of active compound is dissolved with the stated parts by weight of solvent and made up to the desired concentration with water. 50 μl of the active compound preparation are transferred into microtitre plates and made up to a final volume of 200 μl with 150 μl of IPL41 insect medium (33%+15% sugar). Subsequently, the plates are sealed with parafilm, which a mixed population of green peach aphids (Myzus persicae) within a second microtitre plate is able to puncture and imbibe the solution through it. After 5 days, the efficacy in % is determined. 100% means that all the aphids have been killed; 0% means that no aphids have been killed.

[6] = reversed-phase C18 HPLC column, pH 2.7, HCOOH (formic acid mobile phase), 43° C., read-out: log P (HCOOH)
[7] = reversed-phase C18 HPLC column, neutral range, pH 7.8, aqueous ammonium bicarbonate/acetonitrile, 43° C., read-out: log P (neutral)
[8] = reversed-phase C18 HPLC column, acidic range, pH 2.7, 0.1% aqueous formic acid/acetonitrile, 43° C., read-out: log P (acidic)

SMILES	pest or weed control at 20 ppm (Meloidogyne incognita [3])	pest or weed control at 500 g/ha (Tetranychus urticae)	also measured
COc1ccc(Cl)c(S(=O)(=O)NC(=O)c2cn3cc(C(F)(F)F)cc(Cl)c3n2)c1			nematode control efficacy (%) at 0.5 ppm (Meloidogyne incognita [1]): 55%
O=C(O)c1cn(Cc2c(F)cccc2F)cn1 [1-(2,6-difluorobenzyl)-1H-imidazole-4-carboxylic acid]			chromatographic logP ([2]; pH 2.7): 0.42
Cc1nc(C(=O)O)cn1-c1ccccc1Cl [1-(2-chlorophenyl)-2-methyl-1H-imidazole-4-carboxylic acid]			chromatographic logP [2, 6]: 0.67; chromatographic logP [2, 7]: -0.01
Cc1nc(C(=O)NS(=O)(=O)c2ccccc2Cl)cn1-c1ccccc1Cl [1-(2-chlorophenyl)-N-[(2-chlorophenyl)sulfonyl]-2-methyl-1H-imidazole-4-carboxamide]			chromatographic logP [2, 7]: 0.85
O=C(O)c1nc(Br)n(CCC(F)(F)F)c1Br [2,5-dibromo-1-(3,3,3-trifluoropropyl)-1H-imidazole-4-carboxylic acid]			chromatographic logP ([2]; pH 2.7): 1.49
O=C(NS(=O)(=O)c1ccccc1Cl)c1nc(Br)n(CCC(F)(F)F)c1Br [2,5-dibromo-N-[(2-chlorophenyl)sulfonyl]-1-(3,3,3-trifluoropropyl)-1H-imidazole-4-carboxamide]			chromatographic logP [2, 6]: 2.99
CCCn1cnc(C(=O)O)c1Cl [5-chloro-1-propyl-1H-imidazole-4-carboxylic acid]			chromatographic logP ([2]; pH 2.7): 0.6
CCCn1cnc(C(=O)NS(=O)(=O)c2ccc(OC)cc2)c1Cl [5-chloro-N-[(4-methoxyphenyl)sulfonyl]-1-propyl-1H-imidazole-4-carboxamide]			chromatographic logP [2, 7]: 0.56
O=C(NS(=O)(=O)Cc1ccccc1)c1ncn(CCC(F)(F)F)c1Cl [I-028]	100%	90%	
CC(CC(F)(F)F)n1cnc(C(=O)NS(=O)(=O)c2ccc(Cl)cc2)c1Cl (stereo not shown) [I-073]	100%	90%	
Cc1cccc(CS(=O)(=O)NC(=O)c2ncn(CCC(F)(F)F)c2Cl)c1 [I-083]	90%	90%	
O=C(NS(=O)(=O)Cc1ccccc1Cl)c1ncn(CCC(F)(F)F)c1Cl [I-085]	90%	70%	pest or weed control at 500 g/ha (Myzus persicae [4]): 70%
Cn1cc(C(=O)NS(=O)(=O)c2ccccc2Cl)nc1Cc1ccc(Cl)cc1 [I-121]	70%	90%	
CC(C)S(=O)(=O)NC(=O)c1cn(C)c(Cc2ccc(Cl)cc2)n1 [I-122]	90%	100%	pest or weed control at 500 g/ha (Myzus persicae [4]): 90%
O=C(NS(=O)(=O)c1ccc(Cl)cc1)c1cn(Cc2cccc(Cl)c2)cn1 [I-160]	70%	70%	
Cc1nc(C(=O)NS(=O)(=O)c2ccccc2Cl)cn1Cc1ccc(Cl)cc1 [I-170]	100%	90%	pest or weed control at 20 ppm (Myzus persicae [5]): 90%
Cc1nc(C(=O)NS(=O)(=O)c2ccccc2)cn1Cc1ccccc1Cl [I-171]	100%	90%	pest or weed control at 500 g/ha (Myzus persicae [4]): 70%
O=C(NS(=O)(=O)c1ccccc1)c1cn(-c2cccc(Cl)c2)cn1 [I-172]	100%	100%	
O=C(NS(=O)(=O)c1ccccc1)c1cn(-c2cccc(C(F)(F)F)c2)cn1 [I-173]	100%	90%	

SMILES	pest or weed control at 20 ppm (Meloidogyne incognita [3])	pest or weed control at 500 g/ha (Tetranychus urticae)	also measured
O=C(NS(=O)(=O)c1ccccc1Cl)c1cn(-c2ccc(C(F)(F)F)cc2Cl)cn1 [I-197]	100%	70%	
Cc1nc(C(=O)NS(=O)(=O)c2ccccc2)cn1-c1ccccc1F [I-255]	100%	70%	
Cc1nc(C(=O)NS(=O)(=O)c2ccccc2Cl)cn1-c1ccccc1Cl [I-269]	90%		pest or weed control at 20 ppm (Myzus persicae [5]): 70%; pest or weed control at 500 g/ha (Myzus persicae [4]): 70%
Cc1nc(C(=O)NS(=O)(=O)c2c(Cl)cccc2Cl)cn1-c1cc(Cl)cc(Cl)c1 [I-317]	100%		pest or weed control at 20 ppm (Myzus persicae [5]): 90%; pest or weed control at 500 g/ha (Myzus persicae [4]): 90%
Cc1nc(C(=O)NS(=O)(=O)c2cc(Cl)ccc2Cl)cn1-c1cc(F)cc(Cl)c1 [I-330]	100%	70%	
COc1ccc(Cl)c(S(=O)(=O)NC(=O)c2cn(C)c(Cc3ccccc3)n2)c1 [I-373]	70%	90%	
CCSc1cccc(Cl)c1S(=O)(=O)NC(=O)c1cn(-c2cc(Cl)cc(Cl)c2)cn1 [I-391]	100%	70%	
CC(C)Nc1cccc(F)c1S(=O)(=O)NC(=O)c1cn(-c2cc(Cl)cc(Cl)c2)cn1 [I-392]	100%		pest or weed control at 20 ppm (Myzus persicae [5]): 100%; pest or weed control at 500 g/ha (Myzus persicae [4]): 90%
COc1ccc(Cl)c(S(=O)(=O)NC(=O)c2ncn(-c3ccc(Cl)cc3)c2C(C)C)c1 [I-483]	70%	80%	
CC(C)S(=O)(=O)NC(=O)c1nc(Cl)n(CCC(F)(F)F)c1Cl [I-492]		90%	
Cn1nc(C(=O)NS(=O)(=O)c2cc(Cl)ccc2Cl)cc1-c1cccc(C(F)(F)F)c1 [N-[(2,5-dichlorophenyl)sulfonyl]-1-methyl-5-[3-(trifluoromethyl)phenyl]-1H-pyrazole-3-carboxamide]			chromatographic logP [2, 8]: 3.84
COc1ccc(Cl)c(S(=O)(=O)NC(=O)c2cn(Cc3c(F)cccc3F)cn2)c1 [N-[(2-chloro-5-methoxyphenyl)sulfonyl]-1-(2,6-difluorobenzyl)-1H-imidazole-4-carboxamide]			chromatographic logP [2, 8]: 2.18
COc1ccc(Cl)c(S(=O)(=O)NC(=O)c2nc(C)n(-c3cc(Cl)cc(Cl)c3)c2F)c1 [N-[(2-chloro-5-methoxyphenyl)sulfonyl]-1-(3,5-dichlorophenyl)-5-fluoro-2-methyl-1H-imidazole-4-carboxamide]			chromatographic logP [2, 8]: 3.71
CCOC(=O)c1cn(-c2ccccc2Cl)c(C)n1 [ethyl 1-(2-chlorophenyl)-2-methyl-1H-imidazole-4-carboxylate]			chromatographic logP [2, 7]: 2.06
CCCn1cnc(C(=O)OCC)c1N [ethyl 5-amino-1-propyl-1H-imidazole-4-carboxylate]			chromatographic logP [2, 7]: 0.9
CCCn1cnc(C(=O)OCC)c1Cl [ethyl 5-chloro-1-propyl-1H-imidazole-4-carboxylate]			chromatographic logP [2, 7]: 1.7
COC(=O)c1cn(Cc2c(F)cccc2F)cn1 [methyl 1-(2,6-difluorobenzyl)-1H-imidazole-4-carboxylate]			chromatographic logP [2, 8]: 1.45; chromatographic logP [2, 7]: 1.55
COC(=O)c1cn(CCC(F)(F)F)cn1 [methyl 1-(3,3,3-trifluoropropyl)-1H-imidazole-4-carboxylate]			chromatographic logP [2, 6]: 0.87
COC(=O)c1nc(Br)n(CCC(F)(F)F)c1Br [methyl 2,5-dibromo-1-(3,3,3-trifluoropropyl)-1H-imidazole-4-carboxylate]			chromatographic logP [2, 6]: 2.13
